The source of these data is ChEMBL document CHEMBL1142881, “Structure-activity relationships of 19-norvitamin D analogs having a fluoroethylidene group at the C-2 position” (Bioorg Med Chem, 2007).

“And” between values parts separate entries of the source, which are not always exact repeats. Identical values can stand only once.

The target in assay [1] is T1, Vitamin D3 receptor (Rattus norvegicus) (UniProt P13053).
T1 sequence (whole entry): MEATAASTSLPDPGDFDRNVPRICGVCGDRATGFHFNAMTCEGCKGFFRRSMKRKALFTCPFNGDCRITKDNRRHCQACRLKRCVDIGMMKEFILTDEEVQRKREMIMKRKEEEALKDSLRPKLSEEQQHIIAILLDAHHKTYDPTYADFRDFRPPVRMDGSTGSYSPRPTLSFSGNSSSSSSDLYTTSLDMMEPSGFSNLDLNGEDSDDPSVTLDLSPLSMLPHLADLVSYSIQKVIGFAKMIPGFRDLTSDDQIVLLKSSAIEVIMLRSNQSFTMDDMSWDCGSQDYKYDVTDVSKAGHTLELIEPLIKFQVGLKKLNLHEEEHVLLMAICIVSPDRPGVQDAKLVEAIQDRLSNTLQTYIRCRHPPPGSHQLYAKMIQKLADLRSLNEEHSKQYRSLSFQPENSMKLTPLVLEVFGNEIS
In words: Displacement of [3H]1-alpha,25-(OH)2D3 from rat recombinant VDR ligand-binding domain expressed in Escherichia coli BL21 realtive to 1-alpha,25-(OH)2D3. (In general: In a radioligand displacement assay an active substance lowers the binding of a labelled ligand.)

The next assay concerns the target T2, Vitamin D3 receptor (Homo sapiens, UniProt P11473).
T2 sequence (P11473 whole entry): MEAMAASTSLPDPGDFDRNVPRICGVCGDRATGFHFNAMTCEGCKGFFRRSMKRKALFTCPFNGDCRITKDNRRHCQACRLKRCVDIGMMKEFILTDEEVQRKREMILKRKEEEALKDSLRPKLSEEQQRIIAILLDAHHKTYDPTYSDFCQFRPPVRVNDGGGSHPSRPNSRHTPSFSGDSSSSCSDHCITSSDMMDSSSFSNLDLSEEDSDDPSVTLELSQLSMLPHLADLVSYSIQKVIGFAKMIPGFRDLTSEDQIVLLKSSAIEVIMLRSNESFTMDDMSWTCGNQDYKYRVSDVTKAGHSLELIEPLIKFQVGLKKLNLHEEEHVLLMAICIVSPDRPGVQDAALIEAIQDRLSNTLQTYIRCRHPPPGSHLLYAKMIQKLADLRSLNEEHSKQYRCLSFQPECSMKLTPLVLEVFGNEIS
The assay can be described thus: […] of human VDR induced-transcriptional transactivation of luciferase reporter gene in COS7 cells after 24 hrs. It counts as cell-based, COS-7. (In general: Reporter assays use an easily measured gene product as a stand-in for the process of interest.)

Assay [2] addresses T3, Vitamin D3 receptor (Homo sapiens) (UniProt P11473).
T3 sequence (whole entry): T2 sequence (P11473 whole entry)
The assay can be described thus: Displacement of [3H]1-alpha,25-(OH)2D3 from thymus VDR realtive to 1-alpha,25-(OH)2D3.

For assay [3], the target named is T3, Vitamin D3 receptor (Homo sapiens). The assay can be described thus: […] of human VDR induced-transcriptional transactivation of luciferase reporter gene in COS7 cells after 24 hrs relative to 1-alpha,25-(OH)2D3. Format: cell-based. The note with it: COS-7.

With `C[C@@H](CCCC(C)(C)O)C1CCC2/C(=C/C=C3C[C@@H](O)C(=CCF)[C@H](O)C3)CCCC21C` (some centres undefined) [listing 1 of 3 here], the Activity in assay [1] is 0.07% and 1.08%.

As for `C[C@H](CCCC(C)(C)O)C1CCC2/C(=C/C=C3C[C@@H](O)C(=CCF)[C@H](O)C3)CCCC21C` (some centres undefined) [listing 1 of 3 here], the Activity in assay [1] is 0.77% and 0.05%. As usually defined, the EC50 is the midpoint of the concentration-response curve. A low value points to greater potency. Regarding `C[C@H](CCCC(C)(C)O)C1CCC2/C(=C/C=C3C[C@@H](O)C(=CCF)[C@H](O)C3)CCCC21C` (some centres undefined) [listing 2 of 3 here], on Vitamin D3 receptor, the EC50 was determined as 2.2 nM.

As to `C[C@H](CCCC(C)(C)O)C1CCC2/C(=C/C=C3C[C@@H](O)C(=CCO)[C@H](O)C3)CCCC21C` (some centres undefined), the Activity in assay [2] was 2% and 0.007%. For the compound `C[C@@H](CCCC(C)(C)O)C1CCC2/C(=C/C=C3C[C@@H](O)C(=CCF)[C@H](O)C3)CCCC21C` (some centres undefined) [listing 2 of 3 here], on Vitamin D3 receptor, the EC50 worked out at 0.07 nM. On Vitamin D3 receptor, `C[C@H](CCCC(C)(C)O)C1CCC2/C(=C/C=C3C[C@@H](O)C(=CCF)[C@H](O)C3)CCCC21C` (some centres undefined) [listing 3 of 3 here] displayed a concentration giving a half-maximal response (EC50) of 0.5 nM. Turning to `C[C@@H](CCCC(C)(C)O)C1CCC2/C(=C/C=C3C[C@@H](O)C(=CCF)[C@H](O)C3)CCCC21C` (some centres undefined) [listing 3 of 3 here], the response at Vitamin D3 receptor was half-maximal at 1.1 nM (EC50). Consider `C[C@@H](CCCC(C)(C)O)C1CCC2/C(=C/C=C3C[C@@H](O)C(=CCO)[C@H](O)C3)CCCC21C` (some centres undefined), for which the Activity in assay [2] is 0.02% and 1.6%; in assay [3], 4.2 and 12.5.
